Test [1] deals with T1, human histone deacetylase.
T1 construct: The human histone deacetylase was partially purified from human T cell leukemia Jurkat cells
In words: Test 1: Determination of histone deacetylase inhibitor activity. The settings on record: partially purified human histone deacetylase from Jurkat cells; [3H] acetyl-labeled histones; 25° C., 30 minutes; read-out: Test 1: HDAC inhibitory activity IC50. Format: biochemical. How it is done: Test 1: Determination of Histone Deacetylase Inhibitor Activity
The partial purification of human histone deacetylase, the preparation of [^3H] acetyl histones, and the assay for histone deacetylase activity were performed basically according to the method as proposed by Yoshida et al. as follows.
Partial Purification of Human Histone Deacetylase
The human histone deacetylase was partially purified from human T cell leukemia Jurkat cells. Jurkat cells (5×10^8 cells) were suspended in 40 ml of the HDA buffer consisting of 15 mM potassium phosphate, pH 7.5, 5% glycerol and 0.2 mM EDTA. After homogenization, nuclei were collected by centrifugation (35,000×g, 10 min) and homogenized in 20 ml of the same buffer supplemented with 1 M (NH4)2SO4. The viscous homogenate was sonicated and clarified by centrifugation (35,000×g, 10 min), and the deacetylase was precipitated by raising the concentration of (NH4)2SO4 to 3.5 M. The precipitated protein was dissolved in 10 ml of the HDA buffer and dialyzed against 4 liters of the same buffer. The dialyzate was then loaded onto a DEAE-cellulose (Whatman DE52) column (25×85 mm) equilibrated with the same buffer and eluted with 300 ml of a linear gradient (0-0.6 M) of NaCl. A single peak of histone deacetylase activity appeared between 0.3 and 0.4 M NaCl.
Preparation of [^3H] Acetyl Histone
To obtain [^3H] acetyl-labeled histone as the substrate for the histone deacetylase assay, 1×10^8 cells of Jurkat in 20 ml of RPMI-1640 medium (supplemented with 10% FBS, penicillin (50 units/ml) and streptomycin (50 μg/ml)) were incubated with 300 MBq [^3H] sodium acetate in the presence of 5 mM sodium butyrate for 30 minutes in 5% CO2-95% air atmosphere at 37° C. in a 75 cm^2 flask, harvested into a centrifuge tube (50 ml), collected by centrifugation at 1000 rpm for 10 minutes, and washed once with phosphate-buffered saline. The washed cells were suspended in 15 ml of ice-cold lysis buffer (10 mM Tris-HCl, 50 mM sodium bisulfite, 1% Triton X-100, 10 mM MgCl2, 8.6% sucrose, pH 6.5). After Dounce homogenization (30 stroke), the nuclei were collected by centrifugation at 1000 rpm for 10 minutes, washed 3 times with 15 ml of the lysis buffer, and once with 15 ml of ice-cooled washing buffer (10 mM Tris-HCl, 13 mM EDTA, pH 7.4) successively. The pellet was suspended in 6 ml of ice-cooled water using a mixer, and 68 μl of H2SO4 was added to the suspension to give a concentration of 0.4 N. After incubation at 4° C. for 1 hour, the suspension was centrifuged for 5 minutes at 15,000 rpm, and the supernatant was taken and mixed with 60 ml of acetone. After overnight incubation at −20° C., the coagulated material was collected by microcentrifugation, air-dried, and stored at −80° C.
Assay for Histone Deacetylase Activity
For the standard assay, 10 μl of [^3H] acetyl-labeled histones were added to 90 μl of the enzyme fraction, and the mixture was incubated at 25° C. for 30 minutes. The reaction was stopped by addition of 10 μl of HCl. The released [^3H] acetic acid was extracted with 1 ml of ethyl acetate, and 0.9 ml of the solvent layer was taken into 10 ml of toluene scintillation solution for determination of radioactivity.

The test system of test [2] is splenic cells of Lewis rats. In words: Test 2: Determination of T-cell growth inhibitor activity (T lymphocyte blastogenesis test). Format: cell-based. Particulars: Lewis rat splenic cells, Concanavalin A (1 μg/ml), 72 hours, AlamarBlue Assay, read-out: Test 2: T-cell growth inhibitory activity IC50. The protocol:
Test 2: Determination of T-Cell Growth Inhibitor Activity
The T lymphocyte blastogenesis test was performed in microtiter plates with each well containing 1.5×10^5 splenic cells of Lewis rats in 0.1 ml RPMI-1640 medium supplemented with 10% fetal bovine serum (FBS), […] 2-mercaptoethanol, penicilln (100 units/ml) and streptomycin (100 μg/ml), to which Concanavalin A (1 μg/ml) was added. The cells were incubated at 37° C. in a humidified atmosphere of 5% CO2 for 72 hours. After the culture period, suppressive activities of the test compounds in T lymphocyte blastogenesis were quantified by AlamarBlue (trademark) Assay. The test samples were dissolved in DMSO and further diluted with RPMI-1640 medium and added to the culture. The activities of the test compounds were expressed as IC50.
In general terms: Alamar Blue is a resazurin reagent that responds to reducing activity.

In test [3] the test system is TNFα induced NF-κB activation. In words: Test 3: NF-κB reporter gene assay in TNFα-stimulated HEL cells. It is filed as cell-based. Particulars: HEL cells transfected with pNFκB-TA-Luc, TNFα (10 ng/ml); at doses up to 3 nM; FIG. 2. The protocol:
Test 3: Effect of HDAC Inhibitor on TNFα Induced NF-κB Activation 8.75×10^6 HEL cells (JCRB0062, JCRB) were transfected with 10 μg of pNFκB-TA-Luc (Clontech, as shown in FIG. 1) by electroporation at 1750 V and 10 μF with Gene Pulser II (BIO-RAD). The cells were resuspended in 2 ml of RPMI1640 (SIGMA) supplemented with 10% FBS (MOREGATE) and aliquated 50 μl each well in 96-well tissue culture plates. After 5 hr culture at 37° C., 5% CO2, for cell function recovery, the cells were cultured in the presence or absence of TNFα (10 ng/ml) for 4 hr. TNFα stimulated cells were incubated with Compound E138 or FK506 (commercial available immunosuppresive agent, also referred as Tacrolimus) at appropriate concentrations for 1 hour prior to stimulation. For the NF-κB reporter gene assay, the transfected cells were lysed and assayed for luciferase activity with the Bright-glo Luciferase Assay System (Promega) according to the manufacturer's instructions.

The test system of test [4] is MCP-1 production by activated THP-1 cells. In words: Test 4: MCP-1 production by activated THP-1 cells (MCP-1 ELISA). Format: cell-based, human. Particulars: PMA 50 ng/mL 16 hours, compound 9 hr, at doses up to 1 nM, FIG. 3. How it is done:
Test 4: Effect of HDAC Inhibitor on MCP-1 Production by Activated THP-1 Cells For the measurement of MCP-1 level by ELISA, 1×10^6 THP-1 cells (JCRB0112, JCRB) were plated in 6-well tissue culture plates. The cells were cultured in RPMI1640 (SIGMA) supplemented with 10% FBS (MOREGATE) in the presence of PMA (SIGMA, 50 ng/mL) for 16 hours at 37° C., 5% CO2. After incubation, the medium was changed to RPMI1640 supplemented with 2% FBS and various concentrations of Compound E138 or FK506 were added. The cells were further cultured for 9 hr and the amount of MCP-1 protein secreted by activated THP-1 cells into the medium was determined by […] Immuno assay System human MCP-1 (Genzyme Techne) according to the manufacturer's instructions.

Test [5] deals with IL-2 mRNA expression in activated Jurkat cells. In words: IL-2 mRNA expression in activated Jurkat cells. Particulars: at 1 nM. It is filed as cell-based, human.

The source of these data is patent US20060229236A1, “Cyclic tetrapeptide compound and use thereof” (FUJISAWA PHARMACEUTICAL Co. LTD., priority 2001, published 2006).

Broadly, the IC50 is the point on the concentration scale where inhibition reaches its midpoint.

Square brackets hold non-standard residues; d marks the D form. Peptide text beside a SMILES is read from it. Aoda(9S-OH) = C[C@H](O)C(=O)CCCCC[C@H](N)C(=O)O; Phe(4-CN) = N#Cc1ccc(C[C@H](N)C(=O)O)cc1; Iva = CC[C@](C)(N)C(=O)O Some results are limits rather than exact numbers.

With `CC[C@]1(C)NC(=O)[C@H](CCCCCC(=O)[C@@H](C)O)NC(=O)[C@H]2CCCN2C(=O)[C@H](Cc2ccc(OCc3ccccc3)cc2)NC1=O` [Compound E6], the 50% inhibitory concentration (IC50) in test [1] is less than 100 nM; in test [2] it was less than 50 nM.
The like results for `CC[C@]1(C)NC(=O)[C@H](CCCCCC(=O)[C@@H](C)O)NC(=O)[C@H]2CCCN2C(=O)[C@H](Cc2ccc(O)cc2)NC1=O` [Compound E8] were, in that order, less than 100 nM and less than 50 nM.
On to `CC[C@]1(C)NC(=O)[C@H](CCCCCC(=O)[C@@H](C)O)NC(=O)[C@H]2CCCN2C(=O)[C@H](Cc2ccc(OC)cc2)NC1=O` [Compound E13], for which the figures for the IC50 in test [1] and in test [2] were less than 100 nM and less than 50 nM, respectively.
Turning to `CC[C@]1(C)NC(=O)[C@H](CCCCCC(=O)[C@@H](C)O)NC(=O)[C@H]2CCCN2C(=O)[C@H](Cc2ccc(F)cc2)NC1=O` [Compound E17], the IC50 in test [1] was less than 100 nM; in test [2] it was less than 50 nM.
For the compound `CC[C@]1(C)NC(=O)[C@H](CCCCCC(=O)[C@H](C)O)NC(=O)[C@H]2CCCN2C(=O)[C@H](Cc2ccc(C#N)cc2)NC1=O` [Compound E23] (cyclo([Iva][Phe(4-CN)][dP][Aoda(9S-OH)])), the IC50 in test [1] is less than 100 nM; in test [2], less than 50 nM.
For the compound `CCOc1ccc(C[C@@H]2NC(=O)[C@](C)(CC)NC(=O)[C@H](CCCCCC(=O)[C@@H](C)O)NC(=O)[C@H]3CCCN3C2=O)cc1` [Compound E26], the IC50 in test [1] was less than 100 nM; in test [2], less than 50 nM.
With `CC[C@]1(C)NC(=O)[C@H](CCCCCC(=O)[C@@H](C)O)NC(=O)[C@H]2CCCN2C(=O)[C@H](Cc2ccccc2F)NC1=O` [Compound E33], the IC50 was less than 100 nM in test [1] and less than 50 nM in test [2].
Turning to `CC[C@@H](O)C(=O)CCCCC[C@@H]1NC(=O)[C@H]2CCCN2C(=O)[C@H](Cc2ccccc2F)NC(=O)[C@](C)(CC)NC1=O` [Compound E35], the values for the IC50 in test [1] and in test [2] were less than 100 nM and less than 50 nM, respectively.
`CC[C@]1(C)NC(=O)[C@H](CCCCCC(=O)[C@@H](C)O)NC(=O)[C@H]2CCCN2C(=O)[C@H](Cc2ccc(Cl)cc2)NC1=O` [Compound E38]: the half-maximal inhibitory concentration (IC50) was less than 100 nM in test [1] and less than 50 nM in test [2].
In the same order, the values of `CCC1(CC)NC(=O)[C@H](CCCCCC(=O)[C@@H](C)O)NC(=O)[C@H]2CCCN2C(=O)[C@H](Cc2ccccc2)NC1=O` [Compound E41] are less than 100 nM and less than 50 nM.
Take `CC[C@@H](O)C(=O)/C=C/CCC[C@@H]1NC(=O)[C@H]2CCCN2C(=O)[C@H](Cc2ccccc2)NC(=O)[C@](C)(CC)NC1=O` [Compound E48]: the IC50 was less than 100 nM in test [1] and less than 50 nM in test [2].
As to `C=CC[C@@H]1/C=C(\C)C[C@H](C)C[C@H](OC)[C@H]2O[C@@](O)(C(=O)C(=O)N3CCCC[C@H]3C(=O)O[C@H](/C(C)=C/[C@@H]3CC[C@@H](O)[C@H](OC)C3)[C@H](C)[C@@H](O)CC1=O)[C@H](C)C[C@@H]2OC` [FK506, Tacrolimus], the “effect on TNFα induced NF-κB activation” value in test [3] is on record as “no direct effect”. Moreover, the “effect on MCP-1 production by activated THP-1 cells” value in test [4] is listed as “no direct effect”. The “inhibition of IL-2 mRNA expression” value in test [5] is listed as “almost completely inhibits”.
